Source: patent publication US20230414637A1 (priority 2020, published 2023)
In brackets after ≈: the same amount, converted by molar mass. Several values for one entry are separate records, joined by “and”; a condition that tells them apart may be missing. Equal entries are not always repeated. Where two headings read alike, the source gives them in different places.

What was measured:
[1] = assay type: physicochemical; conditions: data and pHp theory
Source text: pH=pKa+Log10[Nic−ve]/[NicOH] Eqn 1
pHp=pKa+log(S−So)/So Eqn 4
So=the molar intrinsic solubility of the undissociated acid (NicOH), and S=the molar concentration of the salt form initially added.

[2] = physchem
Experimental: The pKa is defined as the negative base-10 logarithm of the acid dissociation constant (Ka) of a solution). It is an important parameter to consider here because pKa and pH are equal when half of the acid has dissociated. […] Once the pKa is measured (or estimated) the well-known Henderson-Hasselbalch equation calculates the fractions of each species.

[3] = test system: human airway epithelial cells; conditions: 300 uM
[4] = test system: SARS-CoV-2 in Vero 6 cells; conditions: cited from earlier work
[5] = test system: SARS-CoV-2 in Calu-3 cells; conditions: cited from earlier work
[6] = test system: SARS-CoV-2 in Huh-7 cells; conditions: infected liver Huh-7 cells, Mirabelli et al [60]; cited from earlier work
[7] = test system: SARS-COV-2 syncytia; conditions: Braga et al [18]; cited from earlier work
[8] = test system: human airway epithelial cells; experiment: cells; conditions: Epithelial cell, read-out: IC50 for cell viability and ATP
[9] = physchem; conditions: 20 °C, pH 9.5, aqueous buffer, kinetic from dmso stock
[10] = physchem; remark: listed apart in the source
[11] = in vitro; conditions: human
[12] = cited from earlier work
[13] = test system: Vero E6 cells; conditions: cited from earlier work
[14] = [11]; cited from earlier work
[15] = Supersaturated solution precipitation of niclosamide: amount in solution; conditions: pH 9.5, 3 mM/200 μM
[16] = Equilibrium dissolution of AK Sci niclosamide versus pH (supernatant concentration by UV/Vis at 333 nm)

Compound: O=C(Nc1ccc([N+](=O)[O-])cc1Cl)c1cc(Cl)ccc1O [Niclosamide, 5-Chloro-N-(2-chloro-4-nitrophenyl)-2-hydroxybenzamide]
- pH at which a 30 uM niclosamide solution can be made [1]: 8.16
- pH at which a 50 uM niclosamide solution can be made [1]: 8.39
- pH at which a 200 uM niclosamide solution can be made [1]: 9.01 and 8.92
- pH at which a 300 uM niclosamide solution can be made [1]: 9.19 and 9.10
- pH at which a 20 uM niclosamide solution can be made ([1]; pKa 7.12, So 2.53 uM): 7.96 and 7.98
- pKa [2]: 6.52
- factor of increase of fitted logarithmic dissolution rate (over pH range 8.62 to 9.44, nominal 0.5 mM-1 mM): over 3 ×
- fitted logarithmic dissolution rate, factor of ln(x) (pH 9.44 buffer, more optimized (standardized) stirring): 94
- airway epithelial cells still alive upon washout [3]: 17%
- cell death ([3]; 6 hr): 83%
- IC50 ([4]; Vero 6 cells, Braga et al [18], read-out: IC50 for viral replication): 0.34 µM
- concentration to completely prevent viral replication ([4]; Vero 6 cells, Brunaugh et al [91], including purported enhancement by lysozyme): 0.4 µM
- IC100, complete inhibition of viral replication ([4]; Vero 6 cells, Jeon et al [14]): 1 µM
- IC50 ([4]; Vero 6 cells, Jeon et al [14], read-out: IC50 for viral replication): 0.28 µM
- IC50 ([4]; Vero E6 cells, Mostafa et al [29], read-out: IC50 for inhibiting viral replication): 0.16 µM
- IC100 for inhibiting viral replication (estimated from graph) ([5]; Calu-3 cells, Ko et al [34]): 2 to 3 µM
- IC50 ([5]; Calu-3 cells, Ko et al [34], read-out: IC50 for viral replication): 0.84 µM
- effect on viral replication ([5]; respiratory Calu-3 cells, 2.5 uM, Braga et al [18]): showed inhibition of viral replication
- IC50 [6]: 0.14 µM
- effect on syncytia in vitro [7]: protected against syncytia in vitro
- IC50 [8]: 20 to 30 µM
- solubility kinetic [9]: 3000 µM (≈ 981 µg/mL)
- solubility ([10]; pH 6.4, aqueous buffer): 4.89 µM (≈ 1.6 µg/mL)
- solubility ([10]; pH 9.1, aqueous buffer): 336 µM (≈ 110 µg/mL)
- viability at 300 uM [11]: 30%
- solubility ([12]; pH 6.4): 1.6 µg/mL (≈ 4.89 µM)
- solubility ([12]; pH 9.1): 110 µg/mL (≈ 336 µM)
- CC50 [13]: 205 µM
- concentration to which host cell viability extended [13]: > 100 µM
- acute oral toxicity [14]: > 1000 mg/kg
- supersaturation [15]: ~15 times
- amount of niclosamide in solution ([16]; pH 6-7 (tap water, saliva)): ~2 µM
- conversion of added powder at high pH ([16]; pH 9.7, 10.0 and 10.45 carbonate-bicarbonate buffer, 1 hr stirring): converted to red crystalline micro-crystals
